# Assay results from patent US8853237B2, “Naphthyridinone analogs as mGluR5 positive allosteric modulators” (Vanderbilt University, priority 2010, dated 2014).
# What was measured:
# [1] = target: human mGluR5a receptor (Homo sapiens, UniProt P41594); assay: Cell-based functional assay: Ca2+ mobilization (FDSS), potentiation of glutamate EC20 response; conditions: for EC50: HEK cells (H10H or H12H) transfected with human mGluR5, in presence of EC20 glutamate, >10 uM estimated where no plateau but >20% increase; for Emax: maximum average response at a single concentration, as percent of maximal glutamate response
# Method: Table 1 below lists specific compounds as well as experimentally determined mGluR5 activity determined in a cell-based assay. The mGluR5 activity was determined using the metabotropic glutamate receptor activity assays in human embryonic kidney cells as described herein, wherein the human embryonic kidney cells were transfected with human mGluR5. The compounds in Table 1 were synthesized with methods identical or analogous to those shown herein. The column labeled “Rxn” and the data thereunder indicated in Table 1 refers to the Reaction Scheme number described above. The requisite starting materials were commercially available, described in the literature, or readily synthesized by one skilled in the art of organic synthesis.
# Human mGluR5a cDNA in pCMV6-XL6 mammalian expression plasmid was purchased from OriGene Technologies, Inc. (catalogue number SC326357) and subcloned into pcDNA3.1(−). Human embryonic kidney (HEK)293A cells were then transfected with human mGluR5a pcDNA3.1(−) using LipofectAmine2000 (Invitrogen) and monoclones were selected and tested for functional response using a Ca^2+ mobilization assay. Monoclones were named for the species (“H” for human) plus the location on the plate (e.g. “10H”).
# HEK cells transfected with the human mGluR5a receptor (H10H or H12H cell line) were plated at 15,000 cells/well in clear-bottomed poly-D-lysine-coated assay plates (BD Falcon) in glutamate-glutamine-free growth medium and incubated overnight at 37° C. and 5% CO2. Cell-lines used were either the H10H or H12H cell-lines expressing the human mGluR5 receptor. The following day, the growth medium was removed and the cells were washed with assay buffer containing 1× Hank's balanced salt solution (Invitrogen, Carlsbad, Calif.), 20 mM HEPES, 2.5 mM probenecid, pH 7.4 and left with 20 μL of this reagent. Following this step, the cells were loaded with calcium indicator dye, fluo-4 AM, to a final concentration of 2 μM and incubated for 40-45 min at 37° C. The dye solution was removed and replaced with assay buffer. Cell plates were held for 10-15 min at room temperature and were then loaded into the Functional Drug Screening System 6000 (FDSS 6000, Hamamatsu, Japan).
# After establishment of a fluorescence baseline for about 3 seconds, the compounds of the present invention were added to the cells, and the response in cells was measured. 2.3 minutes later an EC20 concentration of the mGluR5 receptor agonist glutamate was added to the cells, and the response of the cells was measured for about 1.7 minutes. All test compounds were dissolved and diluted to a concentration of 10 mM in 100% DMSO and then serially diluted into assay buffer for a 2× stock solution in 0.6% DMSO; stock compounds were then added to the assay for a final DMSO concentration of 0.3% after the first addition to the assay well. Calcium fluorescence measures were recorded as fold over basal fluorescence; raw data was then normalized to the maximal response to glutamate. Potentiation of the agonist response of the mGluR5 receptor in the present invention was observed as an increase in response to submaximal concentrations of glutamate in the presence of compound compared to the response to glutamate in the absence of compound.
# The concentration-response curves of compounds of the present invention, obtained in the presence of EC20 of mGluR5 receptor agonist glutamate to determine positive allosteric modulation, were generated using Microsoft Excel with IDBS XLfit add-ins. The raw data file containing all time points was used as the data source in the analysis template. This was saved by the FDSS as a tab-delimited text file. Data were normalized using a static ratio function (F/F0) for each measurement of the total 350 values per well divided by each well's initial value. Data was then reduced as to peak amplitudes (Max—Initial Min) using a time range that starts approximately 1 second after the glutamate EC20 addition and continues for approximately 40 seconds. […]
# [2] = system: amphetamine-induced hyperlocomotion; assay: Reversal of amphetamine-induced hyperlocomotion; assay type: in vivo, male Sprague-Dawley rats; conditions: 10 mg/kg, vehicle 20% HP-beta-CD; amphetamine 1 mg/kg sc; rat
# Method: Locomotor activity was assessed as mean distance traveled (cm) in standard 16×16 photocell testing chambers measuring 43.2 cm (Length)×43.2 cm (Width)×30.5 cm (Height) (Med Associates, St. Albans, Vt.). Animals were habituated to individual activity chambers for at least 30 min prior to drug administration. Following administration of drug or vehicle, activity was recorded for a […] time period. Data was expressed as the mean (±SEM) distance traveled recorded in 5 min intervals over the test period. The data were analyzed using repeated measures analysis of variance (ANOVA) followed by post-hoc testing using Dunnett's test, when appropriate. A difference was considered significant when p≦0.05. Amphetamine sulfate was obtained from Sigma (Cat#A5880-1G; St. Louis, Mo.) and 10 mg was dissolved in 10 ml of water. Test compound, 2-((3-fluorobenzyl)oxy)-7,8-dihydro-1,6-naphthyridin-5(6H)-one, was formulated in a volume of 10 ml with an amount of drug appropriate to the dosage indicated. […] At 60 min, all rats were injected subcutaneously with 1 mg/kg amphetamine or vehicle and then monitored for an additional 60 min. Animals are monitored for a total of 120 minutes. Data are expressed as changes in ambulation defined as total number of beam breaks per 5 min periods. The data for the dose-response studies were analyzed by a between-group analysis of variance. […]
# human mGluR5a receptor, sequence (P41594 21-1180 isoform P41594-2 limits assumed): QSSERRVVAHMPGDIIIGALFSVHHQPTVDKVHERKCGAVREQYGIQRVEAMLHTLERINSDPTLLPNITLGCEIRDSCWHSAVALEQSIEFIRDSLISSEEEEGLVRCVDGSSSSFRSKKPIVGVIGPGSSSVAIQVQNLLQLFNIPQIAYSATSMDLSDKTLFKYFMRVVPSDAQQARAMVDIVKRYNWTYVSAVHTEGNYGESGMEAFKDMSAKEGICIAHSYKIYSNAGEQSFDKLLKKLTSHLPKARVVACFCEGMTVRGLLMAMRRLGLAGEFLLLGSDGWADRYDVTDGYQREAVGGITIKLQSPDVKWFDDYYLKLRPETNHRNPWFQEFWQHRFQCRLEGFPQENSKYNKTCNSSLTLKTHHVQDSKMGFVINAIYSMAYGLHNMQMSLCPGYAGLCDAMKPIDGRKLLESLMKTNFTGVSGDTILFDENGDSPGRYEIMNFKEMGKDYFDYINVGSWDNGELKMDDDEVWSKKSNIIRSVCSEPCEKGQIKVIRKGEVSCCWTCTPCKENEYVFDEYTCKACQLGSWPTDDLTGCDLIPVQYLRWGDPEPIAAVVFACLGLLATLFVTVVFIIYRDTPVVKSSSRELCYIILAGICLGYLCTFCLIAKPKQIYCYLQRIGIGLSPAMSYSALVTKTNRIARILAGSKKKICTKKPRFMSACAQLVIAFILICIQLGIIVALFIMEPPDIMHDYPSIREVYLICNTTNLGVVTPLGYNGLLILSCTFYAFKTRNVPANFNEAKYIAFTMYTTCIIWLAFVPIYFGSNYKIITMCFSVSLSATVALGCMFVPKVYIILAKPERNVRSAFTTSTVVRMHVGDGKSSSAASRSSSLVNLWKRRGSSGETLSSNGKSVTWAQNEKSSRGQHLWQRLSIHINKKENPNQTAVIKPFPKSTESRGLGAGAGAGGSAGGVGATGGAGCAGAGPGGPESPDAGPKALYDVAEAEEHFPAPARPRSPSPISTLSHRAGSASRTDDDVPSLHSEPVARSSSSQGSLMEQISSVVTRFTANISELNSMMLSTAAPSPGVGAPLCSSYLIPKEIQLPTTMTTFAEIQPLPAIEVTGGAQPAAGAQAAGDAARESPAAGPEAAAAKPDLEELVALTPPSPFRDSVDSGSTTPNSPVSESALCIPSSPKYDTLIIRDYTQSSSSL
smiles,measurement,setting,value
O=C1c2ccc(OCc3cccc(F)c3)nc2CCN1CC1CCC1 [compound 11],EC50,[1],630 nM
same,Emax,[1],39%
O=C1c2cc(OCc3ccccc3)cnc2CCN1c1ccc(F)cc1 [compound 21],EC50,[1],> 10000 nM
same,Emax,[1],34%
COc1ccc(CN2CCc3ncc(OCc4ccccc4)cc3C2=O)cc1 [compound 14],EC50,[1],> 10000 nM
same,Emax,[1],46%
COc1ccc(CN2CCc3ncc(COc4cccc(F)c4)cc3C2=O)cc1 [compound 12],EC50,[1],1600 nM
same,Emax,[1],64%
O=C1NCCc2ncc(OCc3ccccc3)cc21 [compound 15],EC50,[1],> 10000 nM
same,Emax,[1],43%
O=C1c2ccc(COc3cccc(F)c3)nc2CCN1c1ccc(F)cn1 [compound 7],EC50,[1],360 nM
same,Emax,[1],66%
O=C1NCCc2cc(COc3ccccc3)cnc21 [compound 25],EC50,[1],> 30000 nM
same,Emax,[1],43%
O=C1c2cc(OCc3ccccc3)cnc2CCN1c1ccc(F)cc1F [compound 18],EC50,[1],> 10000 nM
same,Emax,[1],67%
COc1ccc(CN2CCc3nc(OCc4cccc(F)c4)ccc3C2=O)cc1C(F)(F)F [compound 3],EC50,[1],> 10000 nM
same,Emax,[1],40%
Cc1cccc(N2CCc3ncc(OCc4ccccc4)cc3C2=O)n1 [compound 20],EC50,[1],> 30000 nM
C[C@H](N1CCc2cc(COc3ccccc3)cnc2C1=O)C(C)(C)C [compound 27],EC50,[1],> 30000 nM
same,Emax,[1],15%
O=C1NCCc2nc(OCc3ccccc3F)ccc21 [compound 10],EC50,[1],700 nM
same,Emax,[1],79%
O=C1c2cc(OCc3ccccc3)cnc2CCN1c1cccnc1 [compound 19],EC50,[1],> 30000 nM
O=C1c2ccc(OCc3ccccc3)nc2CCN1CC1CCC1 [compound 24],EC50,[1],441 nM
same,Emax,[1],49%
O=C1c2cc(OCc3ccccc3)cnc2CCN1CC1CCC1 [compound 22],EC50,[1],2760 nM
same,Emax,[1],52%
CN1CCc2ncc(COc3cccc(F)c3)cc2C1=O [compound 13],EC50,[1],> 10000 nM
same,Emax,[1],44%
O=C1c2ccc(COc3cccc(F)c3)nc2CCN1c1ccc(F)cc1 [compound 6],EC50,[1],200 nM
same,Emax,[1],72%
CN1CCc2cc(COc3ccccc3)cnc2C1=O [compound 26],EC50,[1],> 30000 nM
same,Emax,[1],21%
O=C1c2ccc(OCc3cccc(F)c3)nc2CCN1c1ccc(F)cn1 [compound 5],EC50,[1],> 10000 nM
same,Emax,[1],40%
O=C1c2ccc(OCc3cccc(F)c3)nc2CCN1c1cccc(F)c1 [compound 4],EC50,[1],980 nM
same,Emax,[1],41%
O=C1c2ccc(OCc3cccc(F)c3)nc2CCN1Cc1cccc(Cl)c1F [compound 2],EC50,[1],4200 nM
same,Emax,[1],39%
O=C1c2cc(OCc3ccccc3)cnc2CCN1c1ccccn1 [compound 17],EC50,[1],> 30000 nM
"O=C1c2ccc(OCc3ccccc3)nc2CCN1c1ccc(F)cc1 [2-(benzyloxy)-6-(4-fluorophenyl)-7,8-dihydro-1,6-naphthyridin-5(6H)-one]",apparent reversal of amphetamine-induced hyperlocomotion,[2],35%
O=C1c2ncc(COc3ccccc3)cc2CCN1c1ccc(F)cc1 [compound 8],EC50,[1],730 nM
same,Emax,[1],76%
O=C1NCCc2nc(OCc3cccc(F)c3)ccc21 [compound 1],EC50,[1],370 nM
same,Emax,[1],71%
O=C1c2ccc(OCc3ccccc3)nc2CCN1c1ccc(F)cc1 [compound 23],EC50,[1],125 nM
same,Emax,[1],66%
O=C1NCCc2nc(OCc3cccc(Cl)c3)ccc21 [compound 9],EC50,[1],190 nM
same,Emax,[1],55%
